# Test results published in ChEMBL document CHEMBL5143550, “Thiol- and Disulfide-Containing Vancomycin Derivatives Against Bacterial Resistance and Biofilm Formation” (2021).
# Key:
# Assay type in all cases: functional
# Enterococcus gallinarum = assay: Antibacterial activity against VanC-resistant Enterococcus gallinarum ATCC 700221 assessed as inhibition of bacterial growth by standard broth microdilution susceptibility method
# Enterococcus faecalis [1] = assay: Antibacterial activity against VanB-resistant Enterococcus faecalis ATCC 51299 assessed as inhibition of bacterial growth in BHIG medium incubated for 24 hrs by resazurin assay
# Enterococcus faecalis [2] = assay: Antibiofilm activity against VanB-resistant Enterococcus faecalis ATCC 51299 assessed as inhibition of biofilm formation by measuring decrease in RFU in BHIG medium incubated for 24 hrs by resazurin assay
# Enterococcus faecalis [3] = assay: Antibacterial activity against VanB-resistant Enterococcus faecalis ATCC 51299 assessed as inhibition of bacterial growth by standard broth microdilution susceptibility method
# Enterococcus faecalis [4] = assay: Antibacterial activity against VanB-resistant Enterococcus faecalis ATCC 51299 assessed as inhibition of colony formation in BHIG medium incubated for 24 hrs by resazurin assay
# Staphylococcus aureus [5] = assay: Antibacterial activity against Staphylococcus aureus ATCC 25923 assessed as inhibition of bacterial growth by standard broth microdilution susceptibility method
# Staphylococcus aureus [6] = assay: Antibacterial activity against methicillin-resistant Staphylococcus aureus ATCC 43300 assessed as inhibition of bacterial growth by standard broth microdilution susceptibility method
# Enterococcus faecalis [7] = assay: Antibiofilm activity against VanB-resistant Enterococcus faecalis ATCC 51299 assessed as inhibition of biofilm formation in BHIG medium incubated for 24 hrs by resazurin assay
# Clostridioides difficile = assay: Antibacterial activity against Clostridium difficile ATCC 43255 assessed as inhibition of bacterial growth by standard broth microdilution susceptibility method
# Staphylococcus aureus [8] = assay: Antibacterial activity against heterogenous vancomycin-intermediate Staphylococcus aureus ATCC NRS24 assessed as inhibition of bacterial growth by standard broth microdilution susceptibility method
# Enterococcus faecium [9] = assay: Antibacterial activity against VanA-resistant Enterococcus faecium MMX0485 assessed as inhibition of bacterial growth by standard broth microdilution susceptibility method
# Moraxella catarrhalis = assay: Antibacterial activity against Moraxella catarrhalis ATCC 8193 assessed as inhibition of bacterial growth by standard broth microdilution susceptibility method
# Streptococcus pneumoniae = assay: Antibacterial activity against […] assessed as inhibition of bacterial growth by standard broth microdilution susceptibility method
# Staphylococcus aureus [10] = assay: Antibacterial activity against vancomycin-intermediate Staphylococcus aureus ATCC NRS1 assessed as inhibition of bacterial growth by standard broth microdilution susceptibility method
# Enterococcus faecalis [11] = assay: Potency index, ratio of vancomycin MIC to test compound MIC for antibacterial activity against VanB-resistant Enterococcus faecalis ATCC 51299 assessed as inhibition of bacterial growth by standard broth microdilution susceptibility method
# Staphylococcus aureus [12] = assay: Potency index, ratio of vancomycin MIC to test compound MIC for antibacterial activity against vancomycin-intermediate Staphylococcus aureus ATCC NRS1 assessed as inhibition of bacterial growth by standard broth microdilution susceptibility method
# Enterococcus faecium [13] = assay: Potency index, ratio of vancomycin MIC to test compound MIC for antibacterial activity against VanA-resistant Enterococcus faecium MMX0485 assessed as inhibition of bacterial growth by standard broth microdilution susceptibility method
# Staphylococcus aureus [14] = assay: Potency index, ratio of vancomycin MIC to test compound MIC for antibacterial activity against heterogenous vancomycin-intermediate Staphylococcus aureus ATCC NRS24 assessed as inhibition of bacterial growth by standard broth microdilution susceptibility method
Compound,MIC (Enterococcus gallinarum),inhibition (INH) (Enterococcus faecalis [1]),inhibition (INH) (Enterococcus faecalis [2]),MIC (Enterococcus faecalis [3]),Activity (Enterococcus faecalis [4]),MIC (Staphylococcus aureus [5]),MIC (Staphylococcus aureus [6]),MBIC (Enterococcus faecalis [7]),MIC (Clostridioides difficile),MIC (Staphylococcus aureus [8]),MIC (Enterococcus faecium [9]),MIC (Moraxella catarrhalis),MIC (Streptococcus pneumoniae),MIC (Staphylococcus aureus [10]),Ratio (Enterococcus faecalis [11]),Ratio (Staphylococcus aureus [12]),Ratio (Enterococcus faecium [13]),Ratio (Staphylococcus aureus [14])
CN[C@H](CC(C)C)C(=O)N[C@H]1C(=O)N[C@@H](CC(N)=O)C(=O)N[C@H]2C(=O)N[C@H]3C(=O)N[C@H](C(=O)N[C@H](C(=O)NCCOCCNC(=O)CCCCC4CCSS4)c4cc(O)cc(O)c4-c4cc3ccc4O)[C@H](O)c3ccc(c(Cl)c3)Oc3cc2cc(c3O[C@@H]2O[C@H](CO)[C@@H](O)[C@H](O)[C@H]2O[C@H]2C[C@](C)(N)[C@H](O)[C@H](C)O2)Oc2ccc(cc2Cl)[C@H]1O (some centres undefined),8 µg/mL,100%,97%,4 µg/mL,8 µg/mL,4 µg/mL,2 µg/mL,8 µg/mL,,,,,,,,,,
CN[C@H](CC(C)C)C(=O)N[C@H]1C(=O)N[C@@H](CC(N)=O)C(=O)N[C@H]2C(=O)N[C@H]3C(=O)N[C@H](C(=O)N[C@H](C(=O)NCCSSc4ccccn4)c4cc(O)cc(O)c4-c4cc3ccc4O)[C@H](O)c3ccc(c(Cl)c3)Oc3cc2cc(c3O[C@@H]2O[C@H](CO)[C@@H](O)[C@H](O)[C@H]2O[C@H]2C[C@](C)(N)[C@H](O)[C@H](C)O2)Oc2ccc(cc2Cl)[C@H]1O,8 µg/mL,100%,99%,16 µg/mL,16 µg/mL,4 µg/mL,2 µg/mL,16 µg/mL,0.5 µg/mL,4 µg/mL,8 µg/mL,> 32 µg/mL,0.5 µg/mL,4 µg/mL,,,,
CCSSCCNC(=O)[C@H]1NC(=O)[C@H]2NC(=O)[C@H](NC(=O)[C@@H]3NC(=O)[C@H](CC(N)=O)NC(=O)[C@H](NC(=O)[C@@H](CC(C)C)NC)[C@H](O)c4ccc(c(Cl)c4)Oc4cc3cc(c4O[C@@H]3O[C@H](CO)[C@@H](O)[C@H](O)[C@H]3O[C@H]3C[C@](C)(N)[C@H](O)[C@H](C)O3)Oc3ccc(cc3Cl)[C@H]2O)c2ccc(O)c(c2)-c2c(O)cc(O)cc21,8 µg/mL,100%,100%,1 µg/mL,32 µg/mL,1 µg/mL,1 µg/mL,32 µg/mL,,,,,,,,,,
CN[C@H](CC(C)C)C(=O)N[C@H]1C(=O)N[C@@H](CC(N)=O)C(=O)N[C@H]2C(=O)N[C@H]3C(=O)N[C@H](C(=O)N[C@H](C(=O)NCCCCCCCCS)c4cc(O)cc(O)c4-c4cc3ccc4O)[C@H](O)c3ccc(c(Cl)c3)Oc3cc2cc(c3O[C@@H]2O[C@H](CO)[C@@H](O)[C@H](O)[C@H]2O[C@H]2C[C@](C)(N)[C@H](O)[C@H](C)O2)Oc2ccc(cc2Cl)[C@H]1O,8 µg/mL,100%,98%,8 µg/mL,8 µg/mL,4 µg/mL,4 µg/mL,8 µg/mL,4 µg/mL,2 µg/mL,2 µg/mL,8 µg/mL,0.5 µg/mL,2 µg/mL,,,,
CCCCCCSSCCNC(=O)[C@H]1NC(=O)[C@H]2NC(=O)[C@H](NC(=O)[C@@H]3NC(=O)[C@H](CC(N)=O)NC(=O)[C@H](NC(=O)[C@@H](CC(C)C)NC)[C@H](O)c4ccc(c(Cl)c4)Oc4cc3cc(c4O[C@@H]3O[C@H](CO)[C@@H](O)[C@H](O)[C@H]3O[C@H]3C[C@](C)(N)[C@H](O)[C@H](C)O3)Oc3ccc(cc3Cl)[C@H]2O)c2ccc(O)c(c2)-c2c(O)cc(O)cc21,4 µg/mL,100%,100%,0.25 µg/mL,2 µg/mL,0.12 µg/mL,0.12 µg/mL,2 µg/mL,0.5 µg/mL,0.5 µg/mL,16 µg/mL,2 µg/mL,0.06 µg/mL,0.5 µg/mL,16,16,16,16
CN[C@H](CC(C)C)C(=O)N[C@H]1C(=O)N[C@@H](CC(N)=O)C(=O)N[C@H]2C(=O)N[C@H]3C(=O)N[C@H](C(=O)N[C@H](C(=O)NCCSSCCNC(=O)CCCCC4CCSS4)c4cc(O)cc(O)c4-c4cc3ccc4O)[C@H](O)c3ccc(c(Cl)c3)Oc3cc2cc(c3O[C@@H]2O[C@H](CO)[C@@H](O)[C@H](O)[C@H]2O[C@H]2C[C@](C)(N)[C@H](O)[C@H](C)O2)Oc2ccc(cc2Cl)[C@H]1O (some centres undefined),8 µg/mL,100%,100%,4 µg/mL,16 µg/mL,2 µg/mL,2 µg/mL,16 µg/mL,0.5 µg/mL,2 µg/mL,> 32 µg/mL,8 µg/mL,0.25 µg/mL,2 µg/mL,,,,
CCCCCCCCCCCSSCCNC(=O)[C@H]1NC(=O)[C@H]2NC(=O)[C@H](NC(=O)[C@@H]3NC(=O)[C@H](CC(N)=O)NC(=O)[C@H](NC(=O)[C@@H](CC(C)C)NC)[C@H](O)c4ccc(c(Cl)c4)Oc4cc3cc(c4O[C@@H]3O[C@H](CO)[C@@H](O)[C@H](O)[C@H]3O[C@H]3C[C@](C)(N)[C@H](O)[C@H](C)O3)Oc3ccc(cc3Cl)[C@H]2O)c2ccc(O)c(c2)-c2c(O)cc(O)cc21,4 µg/mL,99%,92%,0.25 µg/mL,2 µg/mL,1 µg/mL,1 µg/mL,2 µg/mL,0.12 µg/mL,1 µg/mL,2 µg/mL,0.5 µg/mL,0.25 µg/mL,0.5 µg/mL,16,16,16,16
CN[C@H](CC(C)C)C(=O)N[C@H]1C(=O)N[C@@H](CC(N)=O)C(=O)N[C@H]2C(=O)N[C@H]3C(=O)N[C@H](C(=O)N[C@H](C(=O)NCCSSCCNC(=O)CCS)c4cc(O)cc(O)c4-c4cc3ccc4O)[C@H](O)c3ccc(c(Cl)c3)Oc3cc2cc(c3O[C@@H]2O[C@H](CO)[C@@H](O)[C@H](O)[C@H]2O[C@H]2C[C@](C)(N)[C@H](O)[C@H](C)O2)Oc2ccc(cc2Cl)[C@H]1O,4 µg/mL,100%,97%,2 µg/mL,8 µg/mL,0.5 µg/mL,0.5 µg/mL,8 µg/mL,1 µg/mL,1 µg/mL,8 µg/mL,2 µg/mL,0.25 µg/mL,1 µg/mL,,,,
CN[C@H](CC(C)C)C(=O)N[C@H]1C(=O)N[C@@H](CC(N)=O)C(=O)N[C@H]2C(=O)N[C@H]3C(=O)N[C@H](C(=O)N[C@H](C(=O)NCCSSCCN)c4cc(O)cc(O)c4-c4cc3ccc4O)[C@H](O)c3ccc(c(Cl)c3)Oc3cc2cc(c3O[C@@H]2O[C@H](CO)[C@@H](O)[C@H](O)[C@H]2O[C@H]2C[C@](C)(N)[C@H](O)[C@H](C)O2)Oc2ccc(cc2Cl)[C@H]1O,8 µg/mL,98%,86%,8 µg/mL,16 µg/mL,1 µg/mL,1 µg/mL,16 µg/mL,0.5 µg/mL,1 µg/mL,8 µg/mL,> 32 µg/mL,≤ 0.03 µg/mL,1 µg/mL,,,,
CN[C@H](CC(C)C)C(=O)N[C@H]1C(=O)N[C@@H](CC(N)=O)C(=O)N[C@H]2C(=O)N[C@H]3C(=O)N[C@H](C(=O)N[C@H](C(=O)O)c4cc(O)cc(O)c4-c4cc3ccc4O)[C@H](O)c3ccc(c(Cl)c3)Oc3cc2cc(c3O[C@@H]2O[C@H](CO)[C@@H](O)[C@H](O)[C@H]2O[C@H]2C[C@](C)(N)[C@H](O)[C@H](C)O2)Oc2ccc(cc2Cl)[C@H]1O [VANCOMYCIN],8 µg/mL,100%,98%,16 µg/mL,64 µg/mL,,,64 µg/mL,0.12 µg/mL,16 µg/mL,> 128 µg/mL,> 32 µg/mL,0.12 µg/mL,8 µg/mL,,,,
